# Results taken from patent US12612360B2 (Sanofi, priority 2020, dated 2026).
# Where a name gives a salt, the structure may show the parent alone.
# Target: T1, ERα (Homo sapiens, UniProt P03372)
# T1 construct: host or cells: MCF7
# T1 sequence (P03372 1-595): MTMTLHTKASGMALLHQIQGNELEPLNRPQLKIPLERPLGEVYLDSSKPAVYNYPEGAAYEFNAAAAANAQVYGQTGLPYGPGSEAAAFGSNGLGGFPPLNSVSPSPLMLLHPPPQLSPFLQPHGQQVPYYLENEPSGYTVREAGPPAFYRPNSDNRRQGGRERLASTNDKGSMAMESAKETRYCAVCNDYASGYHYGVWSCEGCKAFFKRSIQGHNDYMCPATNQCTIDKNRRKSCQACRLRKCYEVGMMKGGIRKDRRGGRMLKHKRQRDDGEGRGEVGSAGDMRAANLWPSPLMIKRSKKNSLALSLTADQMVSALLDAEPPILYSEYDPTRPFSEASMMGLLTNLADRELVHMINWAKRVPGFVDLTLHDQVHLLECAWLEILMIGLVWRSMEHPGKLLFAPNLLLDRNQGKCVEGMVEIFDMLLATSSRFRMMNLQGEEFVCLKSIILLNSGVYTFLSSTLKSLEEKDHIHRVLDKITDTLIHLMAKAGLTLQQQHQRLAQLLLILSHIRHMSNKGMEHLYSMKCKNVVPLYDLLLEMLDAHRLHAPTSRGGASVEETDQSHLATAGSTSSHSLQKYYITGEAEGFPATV
# Test: Estrogen receptor degradation activity: breast cancer cell ERα in cell western assay (MCF7 cells)
# Format: cell-based
# Conditions: for % Degradation At 0.3 μM: 4 hours, relative to fulvestrant 0.1 μM positive control; for DC50: 4 hours post compound addition, concentration which degrades 50% of the estrogen receptor, read-out: Degradation IC50
# Procedure, shortened: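 In-cell western readout: ERα immunofluorescence (Alexa 488) normalised to DNA signal (Syto-64) after formalin fixation. Compounds dosed for 4 h on MCF7 cells in stripped-serum, phenol-red-free medium over nine 1:5 steps, 0.3 to […] final; fulvestrant 0.1 μM control. IC50 in nM for 50% ERα degradation.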
SMILES,% Degradation At 0.3 μM,DC50
"Cl.O=C(O)c1ccc2c(c1)CCCC(c1ccc(Cl)cc1Cl)=C2c1cc(F)c(C=C2CN(CCCF)C2)c(F)c1 [Example 105, 8-(2,4-dichlorophenyl)-9-(3,5-difluoro-4-((1-(3-fluoropropyl)azetidin-3-ylidene)methyl)phenyl)-6,7-dihydro-5H-benzo[7]annulene-3-carboxylic acid]",94%,0.1 nM
"Cl.O=C(O)c1ccc2c(c1)CCC(c1ccc(Cl)cc1Cl)=C2c1ccc(C=C2CN(CCCF)C2)cc1 [Example 106, 6-(2,4-dichlorophenyl)-5-(4-((1-(3-fluoropropyl)azetidin-3-ylidene)methyl)phenyl)-7,8-dihydronaphthalene-2-carboxylic acid hydrochloride]",93%,1 nM
"O=C(O)c1ccc2c(c1)OCCC(c1ccc(Cl)cc1Cl)=C2c1ccc(C=C2CN(CCCF)C2)cc1 [Example 114, 4-(2,4-Dichlorophenyl)-5-(4-((1-(3-fluoropropyl)azetidin-3-ylidene)methyl)phenyl)-2,3-dihydrobenzo[b]oxepine-8-carboxylic acid hydrochloride]",91%,0.4 nM
"Cl.O=C(O)c1ccc2c(c1)SCCC(c1ccc(Cl)cc1Cl)=C2c1ccc(C=C2CN(CCCF)C2)cc1 [Example 115, 4-(2,4-dichlorophenyl)-5-[4-[[1-(3-fluoropropyl)azetidin-3-ylidene]methyl]phenyl]-2,3-dihydro-1-benzothiepine-8-carboxylic acid; hydrochloride]",100%,120 nM
"Cc1cccc(C2=C(c3ccc(C=C4CN(CCC(F)F)C4)cc3)c3ccc(C(=O)O)cc3CCC2)c1C(F)(F)F [Example 116, 9-(4-((1-(3,3-difluoropropyl)azetidin-3-ylidene)methyl)phenyl)-8-(3-methyl-2-(trifluoromethyl)phenyl)-6,7-dihydro-5H-benzo[7]annulene-3-carboxylic acid]",90%,0.7 nM
"[2H]C([2H])(CC(F)F)N1CC(=Cc2ccc(C3=C(c4ccc(Cl)cc4Cl)CCCc4cc(C(=O)O)ccc43)cc2)C1 [Example 117, 8-(2,4-dichlorophenyl)-9-(4-((1-(3,3-difluoropropyl-1,1-d2)azetidin-3-ylidene)methyl)phenyl)-6,7-dihydro-5H-benzo[7]annulene-3-carboxylic acid]",90%,0.9 nM
"Cc1cccc(C2=C(c3ccc(C=C4CN(CCCF)C4)cc3)c3ccc(C(=O)O)cc3CCC2)c1C(F)(F)F [Example 118, 9-(4-((1-(3-fluoropropyl)azetidin-3-ylidene)methyl)phenyl)-8-(3-methyl-2-(trifluoromethyl)phenyl)-6,7-dihydro-5H-benzo[7]annulene-3-carboxylic acid]",93%,0.4 nM
"Cc1ccc(C(F)(F)F)c(C2=C(c3ccc(C=C4CN(CCCF)C4)cc3)c3ccc(C(=O)O)cc3CCC2)c1 [Example 119, 9-(4-((1-(3-fluoropropyl)azetidin-3-ylidene)methyl)phenyl)-8-(5-methyl-2-(trifluoromethyl)phenyl)-6,7-dihydro-5H-benzo[7]annulene-3-carboxylic acid]",94%,0.9 nM
"FCCCN1CC(=Cc2ccc(C3=C(c4ccccc4Cl)CCCc4ccccc43)cc2)C1 [Example 120, 3-(4-(8-(2-chlorophenyl)-6,7-dihydro-5H-benzo[7]annulen-9-yl)benzylidene)-1-(3-fluoropropyl)azetidine]",98%,2.68 nM
"O=C(O)c1ccc2c(c1)CCCC(c1cc(C(F)(F)F)ccc1F)=C2c1ccc(C=C2CN(CCCF)C2)cc1 [Example 121, 8-(2-fluoro-5-(trifluoromethyl)phenyl)-9-(4-((1-(3-fluoropropyl)azetidin-3-ylidene)methyl)phenyl)-6,7-dihydro-5H-benzo[7]annulene-3-carboxylic acid]",94%,0.7 nM
"[2H]C([2H])(CCF)N1CC(=Cc2ccc(C3=C(c4ccc(Cl)cc4Cl)CCCc4cc(C(=O)O)ccc43)cc2)C1 [Example 122, 8-(2,4-dichlorophenyl)-9-(4-((1-(3-fluoropropyl-1,1-d2)azetidin-3-ylidene)methyl)phenyl)-6,7-dihydro-5H-benzo[7]annulene-3-carboxylic acid]",94%,0.4 nM
"O=C(O)c1ccc2c(c1)CCCC(c1ccc(F)c(C(F)(F)F)c1F)=C2c1ccc(C=C2CN(CCCF)C2)cc1 [Example 124, 8-(2,4-difluoro-3-(trifluoromethyl)phenyl)-9-(4-((1-(3-fluoropropyl)azetidin-3-ylidene)methyl)phenyl)-6,7-dihydro-5H-benzo[7]annulene-3-carboxylic acid]",93%,1.2 nM
"O=C(O)c1ccc2c(c1)CCCC(c1ncc(Cl)cc1C(F)(F)F)=C2c1ccc(C=C2CN(CCC(F)F)C2)cc1 [Example 125, 8-(5-chloro-3-(trifluoromethyl)pyridin-2-yl)-9-(4-((1-(3,3-difluoropropyl)azetidin-3-ylidene)methyl)phenyl)-6,7-dihydro-5H-benzo[7]annulene-3-carboxylic acid]",91%,0.7 nM
"Cc1c(Cl)cccc1C1=C(c2ccc(C=C3CN(CCC(F)F)C3)cc2)c2ccc(C(=O)O)cc2CCC1 [Example 126, 8-(3-chloro-2-methylphenyl)-9-(4-((1-(3,3-difluoropropyl)azetidin-3-ylidene)methyl)phenyl)-6,7-dihydro-5H-benzo[7]annulene-3-carboxylic acid]",93%,0.5 nM

# Further lines, results first:
% Degradation At 0.3 μM,DC50,SMILES
93%,1.3 nM,"O=C(O)c1ccc2c(c1)CCCC(c1cccc(Cl)c1C(F)(F)F)=C2c1ccc(C=C2CN(CCC(F)(F)F)C2)cc1 [Example 107, 8-(3-chloro-2-(trifluoromethyl)phenyl)-9-(4-((1-(3,3,3-trifluoropropyl)azetidin-3-ylidene)methyl)phenyl)-6,7-dihydro-5H-benzo[7]annulene-3-carboxylic acid]"
92%,1.2 nM,"O=C(O)c1ccc2c(c1)CCCC(c1ccc(F)cc1C(F)(F)F)=C2c1ccc(C=C2CN(CCC(F)(F)F)C2)cc1 [Example 108, 8-(4-fluoro-2-(trifluoromethyl)phenyl)-9-(4-((1-(3,3,3-trifluoropropyl)azetidin-3-ylidene)methyl)phenyl)-6,7-dihydro-5H-benzo[7]annulene-3-carboxylic acid]"
91%,1.4 nM,"O=C(O)c1ccc2c(c1)CCCC(c1ccc(Cl)cc1Cl)=C2c1ccc(C=C2CN(CCC(F)(F)F)C2)cc1 [Example 109, 8-(2,4-dichlorophenyl)-9-(4-((1-(3,3,3-trifluoropropyl)azetidin-3-ylidene)methyl)phenyl)-6,7-dihydro-5H-benzo[7]annulene-3-carboxylic acid]"
93%,2.9 nM,"Cc1cccc(C2=C(c3ccc(C=C4CN(CCC(F)(F)F)C4)cc3)c3ccc(C(=O)O)cc3CCC2)c1C(F)(F)F [Example 110, 8-(3-methyl-2-(trifluoromethyl)phenyl)-9-(4-((1-(3,3,3-trifluoropropyl)azetidin-3-ylidene)methyl)phenyl)-6,7-dihydro-5H-benzo[7]annulene-3-carboxylic acid]"
90%,1 nM,"Cc1c(C2=C(c3ccc(C=C4CN(CCC(F)(F)F)C4)cc3)c3ccc(C(=O)O)cc3CCC2)ccc(Cl)c1F [Example 111, 8-(4-chloro-3-fluoro-2-methylphenyl)-9-(4-((1-(3,3,3-trifluoropropyl)azetidin-3-ylidene)methyl)phenyl)-6,7-dihydro-5H-benzo[7]annulene-3-carboxylic acid]"
100%,27.8 nM,"Cc1c(C2=C(c3ccc(C=C4CN(CCC(F)(F)F)C4)cc3)c3ccc(C(=O)O)cc3CCC2)ccc(F)c1F [Example 112, 8-(3,4-difluoro-2-methylphenyl)-9-(4-((1-(3,3,3-trifluoropropyl)azetidin-3-ylidene)methyl)phenyl)-6,7-dihydro-5H-benzo[7]annulene-3-carboxylic acid]"
90%,0.3 nM,"Cc1cc(C(F)(F)F)ccc1C1=C(c2ccc(C=C3CN(CCC(F)(F)F)C3)cc2)c2ccc(C(=O)O)cc2CCC1 [Example 113, 8-(2-methyl-4-(trifluoromethyl)phenyl)-9-(4-((1-(3,3,3-trifluoropropyl)azetidin-3-ylidene)methyl)phenyl)-6,7-dihydro-5H-benzo[7]annulene-3-carboxylic acid]"
94%,0.7 nM,"O=C(O)c1ccc2c(c1)CCCC(c1cc(F)cc(C(F)(F)F)c1Cl)=C2c1ccc(C=C2CN(CCCF)C2)cc1 [Example 123, 8-(2-chloro-5-fluoro-3-(trifluoromethyl)phenyl)-9-(4-((1-(3-fluoropropyl)azetidin-3-ylidene)methyl)phenyl)-6,7-dihydro-5H-benzo[7]annulene-3-carboxylic acid]"
